From patent publication US5656308A, “Non-reducing oligosaccharide with neotrehalose structure, and its production and uses” (Kabushiki Kaisha Hayashibara Seibutsu Kagaku Kenkyujo, priority 1993, dated 1997)

Test system: mice
Assay: Acute toxicity in mice upon oral administration
Assay type: in vivo
Procedure: High-purity β-maltosyl α-glucoside, α-maltosyl β-glucoside, β-maltotriosyl α-glucoside, α-maltotriosyl β-glucoside and β-maltosyl α-maltoside prepared by the method in Experiment 2 were tested for acute toxicity in mice upon oral administration.

Structure (SMILES)	acute toxicity (in words)	death with maximum administrable dose
OC[C@H]1O[C@H](O[C@@H]2O[C@H](CO)[C@@H](O[C@H]3O[C@H](CO)[C@@H](O)[C@H](O)[C@H]3O)[C@H](O)[C@H]2O)[C@H](O)[C@@H](O)[C@@H]1O [β-maltosyl α-glucoside, O-α-D-glucopyranosyl-(1→4)-β-D-glucopyranosyl α-D-glucopyranoside]	less toxic	no death was observed
OC[C@H]1O[C@@H](O[C@H]2O[C@H](CO)[C@@H](O[C@H]3O[C@H](CO)[C@@H](O)[C@H](O)[C@H]3O)[C@H](O)[C@H]2O)[C@H](O)[C@@H](O)[C@@H]1O [α-maltosyl β-glucoside, O-α-D-glucopyranosyl-(1→4)-α-D-glucopyranosyl β-D-glucopyranoside]	less toxic	no death was observed
OC[C@H]1O[C@@H](O[C@H]2O[C@H](CO)[C@@H](O[C@H]3O[C@H](CO)[C@@H](O[C@H]4O[C@H](CO)[C@@H](O)[C@H](O)[C@H]4O)[C@H](O)[C@H]3O)[C@H](O)[C@H]2O)[C@H](O)[C@@H](O)[C@@H]1O [α-maltotriosyl β-glucoside, O-α-D-gluco- pyranosyl-(1→4)-O-α-D-glucopyranosyl-(1→4)-α-D-glucopyranosyl β-D-glucopyranoside]	less toxic	no death was observed
OC[C@H]1O[C@H](O[C@@H]2O[C@H](CO)[C@@H](O[C@H]3O[C@H](CO)[C@@H](O[C@H]4O[C@H](CO)[C@@H](O)[C@H](O)[C@H]4O)[C@H](O)[C@H]3O)[C@H](O)[C@H]2O)[C@H](O)[C@@H](O)[C@@H]1O [β-maltotriosyl α-glucoside, O-α-D-glucopyranosyl-(1→4)-O-α-D-glucopyranosyl-(1→4)-β-D-glucopyranosyl α-D-glucopyranoside]	less toxic	no death was observed
OC[C@H]1O[C@H](O[C@H]2[C@H](O)[C@@H](O)[C@H](O[C@H]3O[C@H](CO)[C@@H](O[C@H]4O[C@H](CO)[C@@H](O)[C@H](O)[C@H]4O)[C@H](O)[C@H]3O)O[C@@H]2CO)[C@H](O)[C@@H](O)[C@@H]1O [β-maltosyl α-maltoside, O-α-D-glucopyranosyl-(1→4)-β-D-glucopyranosyl α-D-maltoside]	less toxic	no death was observed
